A short description of this series: wn = mass fraction of the nth substance listed. The settings on record: 100 kPa, Liquid, Vibrating tube method, w1 = 0.5821.

± gives the expanded uncertainty stated by the source.

Data on one compound can be found in the NIST ThermoML archive (doi:10.1021/acs.jced.6b00048).

As for `[Cl-].[Cl-].[Zn+2]` [zinc chloride] + O, the mass density was 1702.7 ± 6.9 kg/m3 (288.15 K), 1692.5 ± 6.9 kg/m3 (298.15 K) and 1666.6 ± 6.7 kg/m3 (323.15 K).

The mass density is mass per unit of volume.
